Experimental data: patent US20030161893A1, “PTPase inhibitors and methods of using the same” (priority 2001, published 2003)
Values joined by “and” are separate entries in the source; they are usually repeats but may differ in a detail not shown here. Identical values can stand only once. Values belong to the molecule of their own block, whether it stands above or below them.

What was measured:
U937 cells = assay: U937 cell differentiation (NBT reduction); type: cell-based, human; details: day 6; sodium stibogluconate 400 μg/ml, GM-CSF 25 ng/ml, ATRA
Procedure: (§1) Differentiation of AML cell lines was assessed by their ability to produce superoxide as measured by reduction of NBT to formazan and by analysis of expression of CD11b surface marker by flow cytometry. For NBT reduction, each cell suspension was mixed with an equal volume of solution containing 1 mg/ml of NBT (Sigma) and 2.5 μg/ml of TPA for 30 minutes at 37° C. After incubation, cells containing the purple formazan deposits and cells devoid of NBT-reducing activity (white cells) in each sample were determined by counting 200 cells under microscope. Data is expressed as a percentage based on the following ratio: purple cells/purple+white cells. For analysis of cell surface antigens, cells were exposed to phycoerythrin (PE)-conjugated murine anti-human CD11b (DAKO Corp., Carpinteria, Calif.). Analysis of fluorescence was performed on a FACScan flow cytometer (Beckton Dickinson, Mountain View, Calif.).

NB4 cells = assay: NB4 cell growth (MTT), cell cycle and Annexin V; type: cell-based, human; details: 3 days; sodium stibogluconate 250 μg/ml, ATRA 1 μM
Procedure: The NB4 cell line (Lanotte et al., Blood 77, 1080 (1991)) was a gift from Dr. Dan Lindner of the Cleveland Clinic Foundation. […] and U937 cell lines were purchased from American Type Culture Collection (Rockville, Md.). These human […] cell lines were maintained in RPMI 1640 medium supplemented with 10% fetal calf serum (FCS). For cell proliferation assays, cells were cultured at 37° C. in 10% FCS medium containing various amounts of sodium stibogluconate for 6 days. The cell numbers in the cultures were determined by an MTT assay as described previously in Mosmann, J. Imunol. Methods 65, 55 (1983).
The cell cycle was analyzed by flow cytometry after 3 days of culture of NB4 cells in the absence or presence of sodium stibogluconate (250 μg/ml) or ATRA (1 μM). Briefly, the cells were fixed in cold ethanol and incubated for 30 minutes at 4° C. in the dark with a solution of […] propidium iodide, 1 mg/ml RNase and 0.1% NP-40. Analysis was performed immediately after staining using the CELLFIT program (Becton Dickinson, Mountain View, Calif.).
Annexin V staining of exposed membrane phospholipid phosphatidylserine (PS) was done using the Annexin V assay kit (Pharmingen, San Diego, Calif.). Briefly, NB4 cells were cultured in the 10% FCS RPMI 1640 medium in the absence or presence of sodium stibogluconate (250 μg/ml) or ATRA (1 μM) for 3 days. Cells were then washed in PBS twice and stained in binding buffer (10 mM Hepes, pH 7.4; 140 mM NaCl; 2.5 mM CaCl2) containing Annexin V-FITC and propidium iodide for 15 min. The reaction was stopped by adding 10 volumes of binding buffer and analyzed by FACS (Becton Dickinson Facsvantage).

HL-60 cells = assay: HL-60 cell differentiation (NBT reduction); type: cell-based, human; details: day 6; sodium stibogluconate 400 μg/ml, GM-CSF 25 ng/ml, ATRA
Procedure: as §1

Baf3 cells = assay: Baf3 cell proliferation assay; type: cell-based, murine
Procedure: The murine hematopoietic cell line Baf3 was maintained in RPMI 1640 medium supplemented with 10% fetal calf serum (FCS) and murine IL-3 (20 units/ml) as described previously in Damen et al., J. Biol. Chem. 270, 23402 (1995). Human myeloid cell line TF-1 was maintained in RPMI 1640 supplemented with 10% FCS and 40 ng/ml of recombinant human GM-CSF as described previously in Thomassen et al., Clin. Immunol. 95, 85 (2000). For cell proliferation assays, cells were washed in 10% FCS medium twice, resuspended in 10% FCS medium, incubated at 37° C. for 16 hours, and then cultured at 37° C. in 10% FCS medium containing various amounts of cytokines, sodium stibogluconate, or potassium antimonyl tartrate for 3-6 days as indicated. The cell numbers in proliferation assays were determined by an MTT assay or by microscopic cell counting as indicated.

SHP-1 = target: T1, SHP-1 (Mus musculus, UniProt P29351); assay: In vitro PTPase assay, GST/SHP-1 fusion protein; type: biochemical
T1 construct: made in house
Procedure: In vitro PTPase activities were measured using the commercial protein tyrosine phosphatase assay kit (Upstate Biotechnology, Inc. (“UBI”)) following established procedure known to one of skill in the art. […] 100 μl of Malachite Green solution was added and incubated for 5 minutes, and the absorbance at 660 nm was measured after 5 minutes.
The beads were then either subjected to in vitro PTPase assays or washed 3 times in Tris buffer then subjected to in vitro PTPase assays.
Briefly, individual PTPases (0.1 μg/reaction) in 50 μL of PTPase buffer (50 mM Tris, pH 7.4) were incubated at 22° C. for 10 minutes or as indicated in the absence or presence of inhibitory compounds. […] […] […] Relative PTPase activities were calculated based on the formula: (PTPase activity in the presence of an inhibitory compound/PTPase activity in the absence of the compound)×100%. To assess the reversibility of PTPase inhibition, GST fusion proteins of the PTPases bound on glutathione beads (Pharmacia) were pre-incubated with cold Tris buffer (50 mM Tris, pH 7.0) or Tris buffer containing the inhibitor at 4° C. for 30 minutes. The beads were then washed three times in cold Tris buffer or not washed prior to subjecting to in vitro PTPase assays.

Jak2/Stat5 = assay: IL-3-induced Jak2/Stat5 tyrosine phosphorylation in Baf3 cells; type: cell-based, murine
Procedure: For induction of cellular protein phosphorylation by sodium stibogluconate or pervanadate, Baf3 cells were incubated in 0.1% FCS-RPMI 1640 medium at 37° C. for 16 hours. The cells were then washed twice in RPMI 1640 medium and incubated with sodium stibogluconate or pervanandate (0.1 mM) for various times prior to termination by lysing cells in cold lysis buffer (50 mM Tris, pH 7.4; 150 mM NaCl; 0.2 mM Na3VO4; 20 mm NaF; 1% Nonidet P-40; 2 mM PMSF; 20 μg/ml of Aprotinin and 1 mM of sodium molybdic acid). To determine the effect of sodium stibogluconate or potassium antimonyl tartrate on IL-3-induced Jak/Stat phosphorylation, Baf3 cells were deprived of the growth factor for 16 hours in 0.1% FCS RPMI 1640 medium and then incubated with or without sodium stibogluconate or potassium antimonyl tartrate for 10 minutes. IL-3 was next added to the cell suspension and incubated for various times. The Cells were then harvested and lysed in cold lysis buffer at 4° C. for 45 minutes. Total cell lysates (TCL) were separated in SDS-PAGE gels, blotted onto nitrocellulose membrane (Schleicher & Schuell), probed with specific antibodies and detected using an enhanced chemiluminescence kit (ECL, Amersham, Arlington Heights, Ill.).

PTP1B = target: T2, PTP1B (Homo sapiens, UniProt P18031); assay: In vitro PTPase assay, GST/PTP1B fusion protein; type: biochemical; details: 1-1,000 μg/ml
T2 construct: purchased Upstate Biotechnology Inc. (Lake Placid, N.Y.)
T2 sequence (P18031 whole entry, species assumed, the tested form may be a part): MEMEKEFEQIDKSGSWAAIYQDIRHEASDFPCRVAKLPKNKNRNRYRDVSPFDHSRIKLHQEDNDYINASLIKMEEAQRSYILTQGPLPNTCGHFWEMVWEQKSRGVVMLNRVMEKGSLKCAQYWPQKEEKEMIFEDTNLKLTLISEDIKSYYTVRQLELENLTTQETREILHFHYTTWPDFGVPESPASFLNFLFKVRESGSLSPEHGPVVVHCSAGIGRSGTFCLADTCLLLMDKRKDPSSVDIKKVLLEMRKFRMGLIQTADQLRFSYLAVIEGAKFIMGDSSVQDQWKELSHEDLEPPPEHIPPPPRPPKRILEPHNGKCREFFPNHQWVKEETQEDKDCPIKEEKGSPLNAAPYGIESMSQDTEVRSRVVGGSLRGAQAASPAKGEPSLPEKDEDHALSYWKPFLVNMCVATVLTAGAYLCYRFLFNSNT
Procedure: In vitro PTPase activities were measured using the commercial protein tyrosine phosphatase assay kit (Upstate Biotechnology, Inc. (“UBI”)) following established procedure known to one of skill in the art. This assay measures the in vitro dephosphorylation of a synthetic phosphotyrosine peptide of the sequence Arg-Arg-Leu-Ile-Glu-Asp-Ala-Gle-Tyr-Ala-Ala-Arg-Gly, wherein the tyrosine is phosphorylated (SEQ ID NO: 3). Briefly, 0.01 μg of GST/PTPase fusion proteins was incubated in 50 μl of Tris buffer (10 mM Tris, pH 7.4) containing different concentrations of inhibitors or chemicals (0-1,000 μg/ml) at 22° C. for 10 minutes, followed by addition of 0.2 mM of the phosphotyrosine peptide and incubation at 22° C. for 18 hours. 100 μl of Malachite Green solution was added and incubated for 5 minutes, and the absorbance at 660 nm was measured after 5 minutes.

PRL-3 = target: T3, PRL-3 (Homo sapiens, UniProt O75365); assay: In vitro PTPase assay, recombinant PRL-3; type: biochemical; details: DiFMUP, comparable conditions
T3 construct: cDNAs of human PRL-1, PRL-2 and PRL-3 coding region were derived by RT-PCR from H9 cells; made in house; host or cells: DH5a bacteria (E. coli)
T3 sequence (O75365 whole entry): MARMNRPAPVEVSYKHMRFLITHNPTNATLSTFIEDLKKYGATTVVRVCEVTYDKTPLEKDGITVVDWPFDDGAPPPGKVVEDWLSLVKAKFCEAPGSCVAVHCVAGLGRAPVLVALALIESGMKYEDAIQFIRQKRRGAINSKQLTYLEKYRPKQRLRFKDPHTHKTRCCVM
Description: Sodium stibogluconate, suramin, sodium orth ovanadate and GST fusion protein of SHP-1 have been described previously (Pathak et al., J. Imumol. 167, 3391 (2001)). Meglumine antimonate was obtained from Aventis. cDNAs of human PRL-1, PRL-2 and PRL-3 coding region were derived by RT-PCR from H9 cells (Safai, et al., Lancet 1, 1438 (1984)) and inserted in frame into the pGEX vector. cDNA of PRL-1R86 was generated by recombinant DNA technique using PRL-1 cDNA as template following established procedures (Jiao, et al., Mol. Cell. Biol. 16, 6985 (1996)). GST fusion proteins of the PRL phosphatases were prepared from DH5a bacteria transformed with the pGEX fusion protein constructs as described previously (Yi, et al., Mol. Cell. Biol. 12, 836 (1992)). cDNAs encoding the PRLs tagged at the N-termini with the Flag epitope (Castrucci, et al., J. Virol. 66, 4647 (1992)) were generated via recombinant DNA technique, sequenced to confirm their identities and cloned into the pBabepuro vector (Yang, et al., Blood 91, 3746 (1998)). Anti-Flag monoclonal antibody (M2, Sigma) was purchased from a commercial source. A synthetic phosphotyrosine peptide (Arg-Arg-Leu-Ile-Glu-Asp-Ala-Gle-Tyr-Ala-Ala-Arg-Gly (SEQ ID NO: 3), wherein the tyrosine is phosphorylated; UBI) and DiFMUP (6, 8-difluoro-4-methylumbelliferyl phosphate, Molecular Probes) were purchased as substrates for PTPase assays.
In vitro PTPase assays were used to determine the effects of compounds on recombinant PTPases, following established procedures using a synthetic phosphotyrosine peptide or DiFMUP as the substrate (Pathak et al., J. Imumol. 167, 3391 (2001)). Briefly, individual PTPases (0.1 μg/reaction) in 50 μL of PTPase buffer (50 mM Tris, pH 7.4) were incubated at 22° C. for 10 minutes or as indicated in the absence or presence of inhibitory compounds. Substrates (0.2 mM phosphotyrosine peptide) were then added and allowed to react at 22° C. for 18 hrs. PTPase activity of individual reactions was measured by adding 100 μL of malachite green solution (UBI) and then quantifying the amounts of free phosphate cleaved by the PTPase from the peptide substrate by spectrometry (OD660 nm). PTPase assays using DiFMUP as a substrate were conducted following a previously described procedure (Matter, et al., Biochem. Biophys. Res. Comm. 283, 1061 (2001)). Relative PTPase activities were calculated based on the formula: (PTPase activity in the presence of an inhibitory compound/PTPase activity in the absence of the compound)×100%. To assess the reversibility of PTPase inhibition, GST fusion proteins of the PTPases bound on glutathione beads (Pharmacia) were pre-incubated with cold Tris buffer (50 mM Tris, pH 7.0) or Tris buffer containing the inhibitor at 4° C. for 30 minutes. The beads were then washed three times in cold Tris buffer or not washed prior to subjecting to in vitro PTPase assays.

MKP1 = target: T4, MKP1 (Homo sapiens, UniProt P28562); assay: In vitro PTPase assay, GST/MKP1 fusion protein; type: biochemical
T4 construct: a pGEX construct containing the coding region of MKP1 cDNA derived by RT-PCR; made in house; host or cells: DH5a bacteria (E. coli)
T4 sequence (P28562 1-367): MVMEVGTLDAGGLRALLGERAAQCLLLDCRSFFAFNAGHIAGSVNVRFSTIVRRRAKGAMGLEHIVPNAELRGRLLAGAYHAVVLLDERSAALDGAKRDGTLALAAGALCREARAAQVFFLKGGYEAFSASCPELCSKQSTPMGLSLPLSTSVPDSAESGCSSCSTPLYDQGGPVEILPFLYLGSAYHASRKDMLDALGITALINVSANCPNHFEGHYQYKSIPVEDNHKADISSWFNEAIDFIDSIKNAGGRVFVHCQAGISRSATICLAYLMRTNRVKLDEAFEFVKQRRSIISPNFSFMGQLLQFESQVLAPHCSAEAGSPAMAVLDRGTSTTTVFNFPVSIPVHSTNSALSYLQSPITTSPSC

GSTm8 = assay: In vitro PTPase assay, GSTm8; type: biochemical; details: 3-4 μg/ml or 10-100 μg/ml

Compound: CC1=C(/C=C/C(C)=C/C=C/C(C)=C/C(=O)O)C(C)(C)CCC1 [ATRA, All-trans-retinoic acid]
- NBT-positive (differentiated) U937 cells (U937 cells): 72% and 73%
- cell cycle of NB4 cells (NB4 cells): arrested at GI phase
- NBT-positive (differentiated) HL-60 cells (HL-60 cells): 90%

Compound: O.O.O.O=C([O-])[C@H]([O-])[C@@H]([O-])C(=O)[O-].O=C([O-])[C@H]([O-])[C@@H]([O-])C(=O)[O-].[K+].[K+].[Sb+3].[Sb+3] [potassium antimonyl tartrate]
- toxicity against Baf3 cells (Baf3 cells): marked toxicity
- IL-3-induced proliferation of Baf3 cells (Baf3 cells; IL-3 10 units/ml, three days): failed to enhance
- inhibition of SHP-1 (SHP-1; 1-1,000 μg/ml): no detectable inhibition
- IL-3-induced Stat5 phosphorylation (Jak2/Stat5): failed to enhance
- inhibition of PTP1B (PTP1B): no detectable inhibition

- inhibition of SHP-1 compared with sodium stibogluconate (SHP-1; comparable conditions): less effective
- inhibition of PRL-3 with DiFMUP substrate (PRL-3): less effective
Compound: Cc1ccc(C(=O)Nc2ccc(S(=O)(=O)O)c3cc(S(=O)(=O)O)cc(S(=O)(=O)O)c23)cc1NC(=O)c1cccc(NC(=O)Nc2cccc(C(=O)Nc3cc(C(=O)Nc4ccc(S(=O)(=O)O)c5cc(S(=O)(=O)O)cc(S(=O)(=O)O)c45)ccc3C)c2)c1 [Suramin]
- reversibility of SHP-1 inhibition by washing (SHP-1; pre-incubated at 4° C. 30 minutes, beads washed 3 times): almost completely removed by the washing process

Compound: [Na+].[Na+].[Na+].[O]=[V]([O-])([O-])[O-] [sodium orthovanadate]
- inhibition of PRL-3 with DiFMUP substrate (PRL-3): less effective

- inhibition of MKP1 (MKP1): substantial inhibition
- inhibitory activity against SHP-1 (SHP-1; 3-4 μg/ml or 10-100 μg/ml): no obvious inhibitory activity
- inhibitory activity against GSTm8 (GSTm8): no obvious inhibitory activity
Compound: c1ccc([C@H]2CN3CCSC3=N2)cc1 [levamisole]
